Reference: patent US8785457B2 (Cellzome Limited, priority 2009, dated 2014)
Read-outs that look alike come from different tables or passages of the source.

How the values were obtained:
[1] = test system: S6RP serine-240/244 phosphorylation; assay: In vitro Phospho-S6 cellular assay (pS6RP S240/244) in HEK293T/17 cells; type: cell-based; conditions: Homo sapiens, 2 hours, read-out: pS6 IC50
In short: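 Compounds were tested at eight concentrations on adhered HEK293T/17 cells for 2 h at 37 °C (2% FCS, 0.1% DMSO), at 80,000 cells/well for pAkt S473 and 40,000 for pS6RP S240/244. Lysates were captured on phospho-specific antibody MSD plates with Sulfo-Tag detection. Values came from nonlinear variable-slope regression.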

PI3K delta (PI3 Kd) = molecular target: T1, PI3K delta (PI3 Kd) (Homo sapiens, UniProt O00329); assay: kinobeads assay, PI3K delta; type: binding; conditions: kinobeads assay, read-out: Inhibition values (IC50) PI3Kd
T1 construct: endogenous in cells; host or cells: Jurkat, clone E6-1 (ATCC TIB-152) cell lysate
T1 sequence (O00329 whole entry): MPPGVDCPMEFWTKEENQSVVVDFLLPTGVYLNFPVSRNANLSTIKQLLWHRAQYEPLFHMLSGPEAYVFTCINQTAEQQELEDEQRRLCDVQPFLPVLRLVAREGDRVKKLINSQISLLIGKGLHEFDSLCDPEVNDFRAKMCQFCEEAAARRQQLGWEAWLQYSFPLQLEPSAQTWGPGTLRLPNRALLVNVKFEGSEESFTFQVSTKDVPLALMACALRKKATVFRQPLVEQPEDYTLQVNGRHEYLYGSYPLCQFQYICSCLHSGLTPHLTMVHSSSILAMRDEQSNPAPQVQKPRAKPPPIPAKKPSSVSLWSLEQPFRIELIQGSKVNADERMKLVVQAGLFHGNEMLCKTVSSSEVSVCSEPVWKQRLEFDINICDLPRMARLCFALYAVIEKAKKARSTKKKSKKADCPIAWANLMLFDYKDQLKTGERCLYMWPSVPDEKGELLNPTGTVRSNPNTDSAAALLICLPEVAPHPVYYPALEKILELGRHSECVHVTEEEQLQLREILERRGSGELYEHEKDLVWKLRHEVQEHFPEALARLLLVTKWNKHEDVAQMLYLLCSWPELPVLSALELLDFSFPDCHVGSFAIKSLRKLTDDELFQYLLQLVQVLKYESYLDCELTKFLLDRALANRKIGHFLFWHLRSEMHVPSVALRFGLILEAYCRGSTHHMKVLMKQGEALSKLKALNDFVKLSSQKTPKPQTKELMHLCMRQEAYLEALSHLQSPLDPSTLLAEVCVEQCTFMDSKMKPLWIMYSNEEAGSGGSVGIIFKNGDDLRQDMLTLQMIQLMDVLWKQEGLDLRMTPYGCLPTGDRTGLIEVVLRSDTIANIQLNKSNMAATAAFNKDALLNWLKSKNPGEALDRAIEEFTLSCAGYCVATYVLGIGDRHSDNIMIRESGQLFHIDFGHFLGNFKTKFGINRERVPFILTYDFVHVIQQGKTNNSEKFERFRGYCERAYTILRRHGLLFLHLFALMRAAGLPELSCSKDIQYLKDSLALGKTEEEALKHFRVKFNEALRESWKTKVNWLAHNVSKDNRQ
T1 sequence (P27986 whole entry partner): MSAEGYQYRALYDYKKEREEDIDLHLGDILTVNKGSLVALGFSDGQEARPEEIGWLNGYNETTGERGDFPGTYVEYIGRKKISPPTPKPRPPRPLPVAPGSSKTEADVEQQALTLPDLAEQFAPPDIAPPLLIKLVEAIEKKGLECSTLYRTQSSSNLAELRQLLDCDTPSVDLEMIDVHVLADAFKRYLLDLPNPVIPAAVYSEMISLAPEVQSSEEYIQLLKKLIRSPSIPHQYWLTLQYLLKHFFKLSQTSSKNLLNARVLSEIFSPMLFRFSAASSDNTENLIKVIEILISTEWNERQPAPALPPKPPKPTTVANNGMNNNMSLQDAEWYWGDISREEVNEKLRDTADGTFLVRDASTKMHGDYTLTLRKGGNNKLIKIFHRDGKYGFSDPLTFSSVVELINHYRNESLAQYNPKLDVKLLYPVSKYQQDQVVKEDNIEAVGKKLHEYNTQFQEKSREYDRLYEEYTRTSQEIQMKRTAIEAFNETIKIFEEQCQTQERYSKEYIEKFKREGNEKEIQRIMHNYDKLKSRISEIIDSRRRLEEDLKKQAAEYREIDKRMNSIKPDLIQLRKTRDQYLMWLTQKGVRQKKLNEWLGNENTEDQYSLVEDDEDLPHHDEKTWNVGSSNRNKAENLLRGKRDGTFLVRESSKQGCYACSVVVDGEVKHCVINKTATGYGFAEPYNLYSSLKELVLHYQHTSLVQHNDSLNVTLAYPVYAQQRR
In short: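 Competitive binding in Jurkat cell lysate (5 mg/mL protein) against beads carrying an immobilized phenylmorpholin-chromen ligand, in DP buffer pH 7.4 with NP40, DTT and NaF. Bead-bound kinases were eluted and quantified by antibody dot blot with infrared detection, and IC50 was taken from dose-response curves of a 1:3 dilution series.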

Compound	IC50 [1]	IC50 (PI3K delta (PI3 Kd); Table 6)	IC50 (PI3K delta (PI3 Kd); Table 4)
CCNC(=O)N1CCc2c(nc(-c3ccc(NC(=O)NC4CC4)cc3)nc2N2CCOC[C@@H]2C)C1 [Example 88, (S)-2-(4-(3-cyclopropylureido)phenyl)-N-ethyl-4-(3-methylmorpholino)-5,6-dihydropyrido[3,4-d]pyrimidine-7(8H)-carboxamide]	83 nM	> 10000 nM	
CCNC(=O)Nc1ccc(-c2nc3c(c(N4CCOCC4)n2)CCN(C(=O)C(C)(C)C)C3)cc1 [Example 98, 1-ethyl-3-(4-(4-morpholino-7-pivaloyl-5,6,7,8-tetrahydropyrido[3,4-d]pyrimidin-2-yl)phenyl)urea]	45 nM	> 10000 nM	
C[C@H]1COCCN1c1nc(-c2ccc(NC(=O)NC3CC3)cc2)nc2c1CN(C(=O)C1CCOCC1)C2 [Example 129, (S)-1-cyclopropyl-3-(4-(4-(3-methylmorpholino)-6-(tetrahydro-2H-pyran-4-carbonyl)-6,7-dihydro-5H-pyrrolo[3,4-d]pyrimidin-2-yl)phenyl)urea]	336 nM	> 10000 nM	
CCNC(=O)Nc1ccc(-c2nc3c(c(N4CCOCC4)n2)CN(C)C3)cc1 [Example 69, 1-Ethyl-3-(4-(6-methyl-4-morpholino-6,7-dihydro-5H-pyrrolo[3,4-d]pyrimidin-2-yl)phenyl)urea]	208 nM	> 10000 nM	
CCNC(=O)Nc1ccc(-c2nc3c(c(N4CCOC[C@@H]4C)n2)CN(C)C3)cc1F [Example 85, (S)-1-ethyl-3-(2-fluoro-4-(6-methyl-4-(3-methylmorpholino)-6,7-dihydro-5H-pyrrolo[3,4-d]pyrimidin-2-yl)phenyl)urea]	873 nM	> 10000 nM	
C[C@H]1COCCN1c1nc(-c2ccc(NC(=O)Nc3ccn(C)n3)cc2)nc2c1CN(C)C2 [Example 84, (S)-1-(1-methyl-1H-pyrazol-3-yl)-3-(4-(6-methyl-4-(3-methylmorpholino)-6,7-dihydro-5H-pyrrolo[3,4-d]pyrimidin-2-yl)phenyl)urea]	165 nM	> 10000 nM	
CCNC(=O)Nc1ccc(-c2nc3c(c(N4CCOC[C@@H]4C)n2)CN(CC(F)(F)F)C3)cc1 [Example 68, (S)-1-ethyl-3-(4-(4-(3-methylmorpholino)-6-(2,2,2-trifluoroethyl)-6,7-dihydro-5H-pyrrolo[3,4-d]pyrimidin-2-yl)phenyl)urea]	243 nM	> 10000 nM	
C[C@H]1COCCN1c1nc(-c2ccc(NC(=O)NCCO)cc2)nc2c1CN(C)C2 [Example 73, (S)-1-(2-hydroxyethyl)-3-(4-(6-methyl-4-(3-methylmorpholino)-6,7-dihydro-5H-pyrrolo[3,4-d]pyrimidin-2-yl)phenyl)urea]	425 nM	1000 to 10000 nM	
C[C@H]1COCCN1c1nc(-c2ccc(NC(=O)Nc3cccc(O)n3)cc2)nc2c1CN(C)C2 [Example 80, (S)-1-(6-hydroxypyridin-2-yl)-3-(4-(6-methyl-4-(3-methylmorpholino)-6,7-dihydro-5H-pyrrolo[3,4-d]pyrimidin-2-yl)phenyl)urea]	89 nM	> 10000 nM	
CCOC(=O)N1Cc2nc(-c3ccc(NC(=O)NCCO)c(F)c3)nc(N3CCOC[C@@H]3C)c2C1 [Example 104, (S)-ethyl-2-(3-fluoro-4-(3-(2-hydroxyethyl)ureido)phenyl)-4-(3-methylmorpholino)-5H-pyrrolo[3,4-d]pyrimidine-6(7H)-carboxylate]	390 nM	> 10000 nM	
COC(=O)N1CCc2c(nc(-c3ccc(NC(=O)NC4CC4)cc3)nc2N2CCOC[C@@H]2C)C1 [Example 83, (S)-methyl 2-(4-(3-cyclopropylureido)phenyl)-4-(3-methylmorpholino)-5,6-dihydropyrido[3,4-d]pyrimidine-7(8H)-carboxylate]	140 nM	> 10000 nM	
Cc1cc(NC(=O)Nc2ccc(-c3nc4c(c(N5CCOC[C@@H]5C)n3)CN(C)C4)cc2)no1 [Example 72, (S)-1-(4-(6-methyl-4-(3-methylmorpholino)-6,7-dihydro-5H-pyrrolo[3,4-d]pyrimidin-2-yl)phenyl)-3-(5-methylisoxazol-3-yl)urea]	129 nM	> 10000 nM	
CCOC(=O)N1Cc2nc(-c3ccc(NC(=O)NC4CC4)cc3F)nc(N3CCOC[C@@H]3C)c2C1 [Example 131, (S)-ethyl 2-(4-(3-cyclopropylureido)-2-fluorophenyl)-4-(3-methylmorpholino)-5H-pyrrolo[3,4-d]pyrimidine-6(7H)-carboxylate]	99 nM	> 10000 nM	
CCOC(=O)N1Cc2nc(-c3ccc(NC(=O)Nc4ccncc4)cc3)nc(N3CCOC[C@@H]3C)c2C1 [Example 121, (S)-ethyl 4-(3-methylmorpholino)-2-(4-(3-(pyridin-4-yl)ureido)phenyl)-5H-pyrrolo[3,4-d]pyrimidine-6(7H)-carboxylate]	33 nM	> 10000 nM	
C[C@H]1COCCN1c1nc(-c2ccc(NC(=O)NC3CC3)cc2)nc2c1CCN(C(=O)C1CC1)C2 [Example 60, (S)-1-(4-(7-(cyclopropanecarbonyl)-4-(3-methylmorpholino)-5,6,7,8-tetrahydropyrido[3,4-d]pyrimidin-2-yl)phenyl)-3-cyclopropylurea]	37 nM	> 10000 nM	> 10000 nM
CCNC(=O)Nc1ccc(-c2nc3c(c(N4CCOC[C@@H]4C)n2)CCN(C(C)=O)C3)cc1 [Example 59, (S)-1-(4-(7-acetyl-4-(3-methylmorpholino)-5,6,7,8-tetrahydropyrido[3,4-d]pyrimidin-2-yl)phenyl)-3-ethylurea]	160 nM	> 10000 nM	> 10000 nM
CCNC(=O)Nc1ccc(-c2nc3c(c(N4CCOC[C@@H]4C)n2)CCN(C(=O)OC)C3)cc1 [Example 81, (S)-methyl 2-(4-(3-ethylureido)phenyl)-4-(3-methylmorpholino)-5,6-dihydropyrido[3,4-d]pyrimidine-7(8H)-carboxylate]	47 nM	> 10000 nM	
CCNC(=O)Nc1ccc(-c2nc3c(c(N4CCOCC4)n2)CCN(C(C)=O)C3)cc1 [Example 97, 1-(4-(7-acetyl-4-morpholino-5,6,7,8-tetrahydropyrido[3,4-d]pyrimidin-2-yl)phenyl)-3-ethylurea]	338 nM	1000 to 10000 nM	
CCNC(=O)Nc1ccc(-c2nc3c(c(N4CCOC[C@@H]4C)n2)CN(CC(C)(C)C)C3)cc1 [Example 67, (S)-1-ethyl-3-(4-(4-(3-methylmorpholino)-6-neopentyl-6,7-dihydro-5H-pyrrolo[3,4-d]pyrimidin-2-yl)phenyl)urea]	143 nM	> 10000 nM	
COC(=O)N1Cc2nc(-c3ccc(NC(=O)NC4CC4)cc3)nc(N3CCOC[C@@H]3C)c2C1 [Example 86, (S)-methyl 2-(4-(3-cyclopropylureido)phenyl)-4-(3-methylmorpholino)-5H-pyrrolo[3,4-d]pyrimidine-6(7H)-carboxylate]	99 nM	> 10000 nM	
CCNC(=O)Nc1ccc(-c2nc3c(c(N4CCOC[C@@H]4C)n2)CN(C(=O)OCC)C3)c(F)c1 [Example 113, (S)-ethyl-2-(4-(3-ethylureido)-2-fluorophenyl)-4-(3-methylmorpholino)-5H-pyrrolo[3,4-d]pyrimidine-6(7H)-carboxylate]	77 nM	> 10000 nM	
CCNC(=O)Nc1ccc(-c2nc3c(c(N4CCOC[C@@H]4C)n2)CN(C(=O)OCC)CC3)cc1 [Example 107, (S)-ethyl 2-(4-(3-ethylureido)phenyl)-4-(3-methylmorpholino)-7,8-dihydropyrido[4,3-d]pyrimidine-6(5H)-carboxylate]	159 nM	> 10000 nM	
CCNC(=O)Nc1ccc(-c2nc3c(c(N4CCOC[C@@H]4C)n2)CN(C(=O)OC(C)(C)C)C3)cc1 [Example 1, (S)-tert-butyl 2-(4-(3-ethylureido)phenyl)-4-(3-methylmorpholino)-5H-pyrrolo[3,4-d]pyrimidine-6(7H)-carboxylate]	52 nM	> 10000 nM	> 10000 nM
CCNC(=O)Nc1ccc(-c2nc3c(c(N4CCOC[C@@H]4C)n2)CN(C(=O)OC)C3)cc1 [Example 89, (S)-methyl 2-(4-(3-ethylureido)phenyl)-4-(3-methylmorpholino)-5H-pyrrolo[3,4-d]pyrimidine-6(7H)-carboxylate]	82 nM	> 10000 nM	
